Experimental data from patent US12691092B2, “Method for reducing cutaneous skin scarring by pre-emptive priming and compounds and compositions for its implementation” (SOS SCIENCE OF SKIN LTD, priority 2020, dated 2026).

Assays:
Type in all cases: in vivo, human
CD31 = CD31 angiogenic immunohistochemical marker in scar biopsies
Procedure: A double-blind randomized placebo-controlled trial was conducted using a temporal punch-biopsy model. The punch biopsy and topical application methodology used in the study is illustrated in FIG. 1, namely showing pre-injury pre-emptive priming (7-days), pre-injury pre-emptive priming (3-days), day of injury (immediate application on day 0), post-injury (delayed 2 weeks post injury) including biopsy time points and time of topical applications. Each group applied both placebo and topical formulations twice daily for the duration of the study until week 8, with only the starting time point differing between groups Participants were split into 4 groups (n=10 in each group) in order to compare different modes (timings) of commencement of the topical application: • Group-1: Pre-emptive Priming (7-days): pre-injury • Group-2: Pre-emptive Priming (3-days): pre-injury • Group-3: Immediate (0-day): day-of-injury • Group-4: Delayed (14-days): post-injury Clinical quantitative devices were used to objectively monitor cutaneous healing at weekly intervals and punch biopsies were performed on day 0 (uninjured skin) and at weeks 4 and 8 for protein and gene expression analyses. In the trial, topical EGCG and a placebo topical were applied twice daily for the duration of the trial until week 8 with only the starting time points differing between groups. Clinical and experimental analysis involved use of non-invasive devices as well as protein and gene studies. Excisional skin biopsies in upper arms were evaluated weekly with multiple quantitative devices over an 8-week period. […] In order to further support these findings and the clinical findings, two well-known and established angiogenic immunohistochemical markers; CD31 and VEGF-A were used. […] There was a significant difference between groups (p=0.02) at week-4.

HBB, HBA1, HBA2 = assay: mRNA sequencing of scar biopsies; conditions: group-1, week 4
Procedure: (§1) A double-blind randomized placebo-controlled trial was conducted using a temporal punch-biopsy model. The punch biopsy and topical application methodology used in the study is illustrated in FIG. 1, namely showing pre-injury pre-emptive priming (7-days), pre-injury pre-emptive priming (3-days), day of injury (immediate application on day 0), post-injury (delayed 2 weeks post injury) including biopsy time points and time of topical applications. Each group applied both placebo and topical formulations twice daily for the duration of the study until week 8, with only the starting time point differing between groups Participants were split into 4 groups (n=10 in each group) in order to compare different modes (timings) of commencement of the topical application: • Group-1: Pre-emptive Priming (7-days): pre-injury • Group-2: Pre-emptive Priming (3-days): pre-injury • Group-3: Immediate (0-day): day-of-injury • Group-4: Delayed (14-days): post-injury Clinical quantitative devices were used to objectively monitor cutaneous healing at weekly intervals and punch biopsies were performed on day 0 (uninjured skin) and at weeks 4 and 8 for protein and gene expression analyses. […] Excisional skin biopsies in upper arms were evaluated weekly with multiple quantitative devices over an 8-week period. […]

[1] = test system: Nuclear factor erythroid 2-related factor 2 (NRF2); assay: NRF2 immunohistochemical marker (anti-oxidant effect); conditions: scar samples, weeks 4 and 8
Procedure: as §1

O=C(OC1Cc2c(O)cc(O)cc2OC1c1cc(O)c(O)c(O)c1)c1cc(O)c(O)c(O)c1 (single isomer, unassigned; (-)) [EGCG, (-)-epigallocatechin-3-gallate]
Angiogenic markers in primed uninjured skin (CD31; primed uninjured skin prior to injury): reduces angiogenic markers
CD31: larger reduction in group 1 compared to group-4 (CD31; week 4, 7-day priming vs delayed, p=0.01): 40%
CD31 in EGCG-treated samples compared with placebo (CD31; weeks 4 and 8, all groups, p<0.01): significantly down-regulated
mRNA sequencing: HBB, HBA1 and HBA2 expression with EGCG compared to placebo (HBB, HBA1, HBA2): reduced
NRF2 amounts, EGCG samples compared to placebo [1]: slightly higher amounts of NRF2 compared to placebo samples, although not significantly
